Earlier results as cited in US8263638B2, “Dosing regimens for ion channel modulating compounds” (priority 2004, dated 2012).
Like-named read-outs stand apart in the source and are kept apart here.

System: rabbit Purkinje fibers
Details: cited from earlier work

Compound	increase of APD90 (10 μM, rabbit)	increase of APD90 (10 nM, rabbit Purkinje fibers, BCL=1000 ms)
C=C[C@H]1C[N@@]2CC[C@H]1C[C@@H]2[C@@H](O)c1ccnc2ccc(OC)cc12 [quinidine]	93%	
CN(CCOc1ccc(NS(C)(=O)=O)cc1)CCc1ccc(NS(C)(=O)=O)cc1 [dofetilide]		83%
